# Assay results reported in patent US9975853B2, “Tetrahydroisoquinolinone derivatives and their use in the inhibition of the HSP70 protein” (Julius-Maximilians-Universitaet Wuerzburg, priority 2014, dated 2018).
# What was measured:
# INA-6 cells = assay: Viability of INA-6 cells under concomitant treatment with HSP90 inhibitor NVP-AUY922; assay type: cell-based, human; conditions: AUY922 7.5 nM plus trans-7b 3.5 μM, sublethal concentrations
# Experimental: The heat shock protein HSP90, which critically cooperates with HSP72 and HSP73 to mediate a chaperone function for a multitude of proteins, is regarded as a reasonable therapeutic target in MM. […] Therefore, potential effects of a concomitant treatment of trans-7b with the HSP90 inhibitor NVP-AUY922 on viability of INA-6 cells were analyzed. INA-6 cells were incubated either with DMSO (as a solvent control), sublethal concentrations of AUY922 (7.5 nM) or trans-7b (3.5 μM) or with a combination of both. Viability was measured by Annexin V-FITC/propidium iodide double staining (BenderMedSystems, Vienna, Austria) according to the manufacturer's instructions. Cells were washed in PBS, incubated for 15 minutes in 100 ml binding buffer (10 mM HEPES/NaOH, pH 7.4, 140 mM NaCl, 2.5 mM CaCl2) containing 2.5 mL annexin V-FITC mix and 1 mg/ml PI and analyzed by flow cytometry (FACSCalibur/CELLQuest; Becton Dickinson, Heidelberg, Germany). Whereas early apoptosis is characterized by positive annexin V-FITC staining reaction, cells in a late apoptotic stage lose their membrane integrity and additionally incorporate PI. […] Raw data of three independent measurements were set in relation to their respective DMSO controls, and means and standard deviations were calculated using the Graphpad Prism software (Graphpad, La Jolla, USA).
# [1] = tested on: peripheral blood mononuclear cells (PBMCs); assay: Cell viability assay in non-malignant peripheral blood mononuclear cells; assay type: cell-based, human; conditions: 72 hours
# Experimental: The effect of pharmacological Hsp70 inhibition on cell viability was analyzed after 72 hours of treatment in both non-malignant (mononuclear cells from the peripheral blood) and malignant lymphocytes (multiple myeloma cells). The mononuclear cells were separated from the peripheral blood of healthy donors by Ficoll-Hypaque density gradient centrifugation. The human cell line INA-6 represents a well-established model for multiple myeloma. The percentage of viable and apoptotic cell fractions was assessed using an annexin V-FITC/propidium iodide (PI) staining kit (Bender MedSystems, Vienna, Austria) according to manufacturer's instructions. In brief, cells were washed in PBS, incubated for 10 min in 100 ml binding buffer (10 mM HEPES/NaOH, pH 7.4, 140 mM NaCl, 2.5 mM CaCl2) containing 2.5 ml annexin V-FITC mix and 1 mg/ml propidium iodide (PI), subsequently diluted with 100 ml binding buffer and analyzed by flow cytometry (FACSCalibur/CELLQuest; Becton Dickinson, Heidelberg, Germany). […] To establish kill curves, concentrations of the tested compounds were titrated, and the measured viable cell fractions were further analyzed using the Prism Calculation Software (GraphPad Software Inc., La Jolla, USA). […]
structure (smiles),measurement,setting,value
"COc1ccc(C2C(C(=O)Nc3cccc(C)n3)c3ccccc3C(=O)N2c2ccccc2)cc1 (stereo not drawn) [trans-7b, trans-3-(4-Methoxyphenyl)-N-(6-methylpyridin-2-yl)-1-oxo-2-phenyl-1,2,3,4-tetrahydroisoquinoline-4-carboxamide]",effect on the apoptotic effect of the HSP90 inhibitor NVP-AUY922 (viability),INA-6 cells,strongly enhanced
same,cytotoxic effect in primary PBMCs (viability),[1],lack any cytotoxic effect even in higher micromolar concentrations
